The results in this text go back to patent publication US7056734B1, “Differentiation of non-insulin producing cells into insulin producing cells by GLP-1 or exendin-4 and uses thereof” (The United States of America as represented by the …, priority 1998, dated 2006).

Read-outs that look alike come from different tables or passages of the source.

Experiment [1] concerns pancreata. Briefly: Proliferation and differentiation of pancreatic cells after GLP-1 infusion or exendin-4 injection. It is filed as in vivo, rat. The note with it: for total number of insulin positive cells: GLP-1 continuous infusion or exendin-4 repeated ip injection for at least two days; for time of maximal differentiation effect: GLP-1 continuous infusion, exendin-4 daily bolus; for persistence of increased number of insulin producing cells after treatment is discontinued: rat, in vivo. On the procedure:
Exendin-4, in contrast, was administered intraperitoneally one time daily for five days according to the protocol of Example 2.

Experiment [2] has as its system AR42J cells. As to the kind of experiment: Immunocytochemistry of insulin- and glucagon-positive AR42J cells. It is filed as cell-based, rat. The procedure: Cell culture. AR42J cells were maintained in Dulbecco's modified Eagle's medium (DMEM) supplemented with 10% fetal calf serum (FBS), 100 IU/ml penicillin, 100 μg/ml streptomycin and 2 mM glutamine. Cells from passage 23–35 were used throughout this study. Cells were routinely plated at a density of about 10^5 cells/ml in 12-well cluster dishes or on coverslips and incubated in a humidified incubator at 37° C. with 95% air and 5% CO2.
Immunocytochemistry analysis. Cells were cultured on glass coverslips, washed with phosphate buffered saline (PBS) to remove serum, and fixed with 0.5% glutaraldehyde in PBS. Cells were permeabilized with 0.2% Triton X-100 for 5 min and the rest of the procedure was carried out at room temperature in a humidified chamber. Suction was used to remove reagents between each step but drying of specimens was avoided. Sufficient reagent was used to cover each specimen (approximately 1 or 2 drops was usually adequate). The coverslips were incubated in 0.3% H2O2 in PBS for 30 min to quench endogenous peroxidase activity and washed in PBS×3 times, followed by incubation with 2% goat serum in PBS for 30 min to block non-specific binding of IgG. Excess serum was removed by blotting. The specific primary polyclonal antisera (anti-insulin 1:300; anti-glucagon 1:300) were used. Antibody was diluted in PBS containing 1% goat serum. This was applied to the coverslip and incubated at room temperature for 1 h. The coverslips were washed ×3 times in PBS, each time for 5 min, then incubated with biotinylated second antibody for 1 h and washed ×3 times with PBS. Avidin-biotin-peroxidase complex in PBS was applied for 30 min. Immunoperoxidase labeling was performed with a Vectostain ABC kit (Vector Labs, Burlingame, Calif.). After extensive washing in PBS for 4–5 times (each 5 min), the coverslips were incubated in diaminobenzidine tetrahydrochloride (DAB) in PBS, with 0.01% hydrogen peroxide for 3 min. The reaction was stopped by washing the coverslips in PBS and examined under a light microscope. To confirm specific staining, samples incubated with preabsorbed primary antibody were used as negative control, and the insulin producing cell line RIN 1046-38 cells were used as positive control for our experiments. The avidin-biotin-peroxidase (ABC) procedure was performed according to methods known in the art (Hsu et al., 1981).

For experiment [3], the system named is AR42J cells. Briefly: Intracellular calcium in single AR42J cells (indo-1). It is filed as cell-based, rat. On the procedure: Measurement of intracellular calcium, [Ca^2+]l. AR42J cells were loaded with the fluorescent Ca^2+ probe, indo-1 acetoxymethyl ester (indo-1/AM). […] Both loading with indo-1 and the experiments were carried out at room temperature (22–24° C.). […] The emission field was restricted to a single cell. Indo-1 was excited at 350±5 nm every 5 ms, and the fluorescence emission was split into wavelength bands of 410±5 and 490±5 nm. […] The cell autofluorescence was assessed in a large number of indo-1 non-loaded cells from the same batch. […] Routinely, the cells were exposed to the test solution for 240–300s. Thereafter, the test solution was washed out, while [Ca^2+]l was monitored for additional 120–180s. The test solutions were prepared just prior to the experiment by adding the hormones in standard bathing solution.

In experiment [4] the test system is diabetic mice. As to the kind of experiment: Preliminary ip and sc injections, duration of blood sugar lowering. It is filed as in vivo, mouse. The conditions noted are these: for blood sugars 24 hours after ip and sc injections: preliminary experiments. On the procedure: Effects of chronic treatment with exendin-4 in mice. The biological activity of exendin-4, as measured by its ability to lower blood sugar, was much longer than we expected when given ip or subcutaneously to diabetic animals. […] This lead us to design a long-term experiment with exendin-4. At the initiation of the daily ip exendin-4 regimen in the mice fasting blood glucose was 145±51 mg/dl in the non-diabetic mice and 232±38 mg/dl in the diabetic mice. […] Glucose levels dropped to 90±11 mg/dl in the exendin-4-treated animals from 238±51 mg/dl (p<0.002) in the NaCl-treated animals (Table 1). We measured fasting insulin levels in the diabetic animals that received NaCl or exendin-4. They were higher in the animals that received exendin-4 (p<0.002). […] We surmised that the decreased urination in the exendin-4-treated diabetic mice was due to less osmotic diuresis because of lower blood glucose.
This was possibly due to greater variation in the sc technique and perhaps even loss of the peptide during injections in some cases.

For experiment [5], the system named is AR42J cells. As to the kind of experiment: Amylase release from AR42J cells. Format: cell-based, rat. The procedure: Cell Culture. AR42J cells were maintained in Dulbecco's modified Eagle's medium (Gibco, Grand Island, N.Y.) (DMEM) supplemented with 10% Fetal Calf Serum, 100 IU/ml penicillin, 100 μg/ml streptomycin and 2 mM glutamine. Cells from passage 23–36 were used throughout this study.
Amylase Assay. For amylase secretion, cells were washed free of medium with 2 ml phosphate buffered saline (PBS). Incubation was then carried out in DMEM containing 15 mM HEPES, 0.2% bovine serum albumin (BSA) and 0.01% soybean trypsin inhibitor. The hormones and reagents of interest were added for 50 min at 37° C. The incubation medium was then immediately removed for amylase determination and the cells were again washed in 2 ml ice-cold PBS. […] The released amylase was expressed as the percentage of the total amylase activity of the cells.

The mark [6] stands for this setting: 10 nM GLP-1 or 0.1 nM exendin-4, 3 days.

As for `CC[C@H](C)[C@H](NC(=O)[C@H](Cc1ccccc1)NC(=O)[C@H](CCC(=O)O)NC(=O)[C@H](CCCCN)NC(=O)[C@H](C)NC(=O)[C@H](C)NC(=O)[C@H](CCC(N)=O)NC(=O)CNC(=O)[C@H](CCC(=O)O)NC(=O)[C@H](CC(C)C)NC(=O)[C@H](Cc1ccc(O)cc1)NC(=O)[C@H](CO)NC(=O)[C@H](CO)NC(=O)[C@@H](NC(=O)[C@H](CC(=O)O)NC(=O)[C@H](CO)NC(=O)[C@@H](NC(=O)[C@H](Cc1ccccc1)NC(=O)[C@@H](NC(=O)CNC(=O)[C@H](CCC(=O)O)NC(=O)[C@H](C)NC(=O)[C@@H](N)Cc1c[nH]cn1)[C@@H](C)O)[C@@H](C)O)C(C)C)C(=O)N[C@@H](C)C(=O)N[C@@H](Cc1c[nH]c2ccccc12)C(=O)N[C@@H](CC(C)C)C(=O)N[C@H](C(=O)N[C@@H](CCCCN)C(=O)NCC(=O)N[C@@H](CCCNC(=N)N)C(N)=O)C(C)C` [GLP-1], in experiment [1], the “total number of insulin positive cells” value is “increase in total number of insulin positive cells”, the “time of maximal differentiation effect” value is listed as “seven days” and the “persistence of increased number of insulin producing cells after treatment is discontinued” value is “at least two weeks”. Further, the “earliest time at which differentiation effect was observed” value in experiment [1] (continuous infusion) worked out at 1 days. Besides, the “cells in treated pancreata positive for PCNA” value in experiment [1] (continuous infusion, five days) was “Approximately 20%”. For the same compound, in experiment [2] (1 nM GLP-1, 3 days), the “AR42J cells converted into insulin-positive cells” value is approximately 10%. For the same compound, the “AR42J cells converted into insulin-positive cells” value in experiment [2] (setting [6]) was approximately 25%. Besides, in experiment [2] (48 h, GLP-1 (10 nM)), the “treated AR42J cells glucagon positive” value was found to be 20% and the “treated AR42J cells insulin-positive” value is approximately 6%. Besides, the “treated cells containing glucagon” value in experiment [2] (72 h, GLP-1 (10 nM)) is recorded as “fully half”. The compound also had a cells remaining insulin-positive in experiment [2] (for at least 7 days, GLP-1 (10 nM)) of approximately 25%. For the same compound, in experiment [3] (single cells), the “peak [Ca2+]i amplitude, increase over resting indo-1 fluorescence ratio (IFR)” value was 1.5–2.5 fold. Further, the “AR42J cells showing [Ca2+]i response” value in experiment [3] (single cells, CCK 1 nM, glucagon 10 nM) is recorded as “approximately 50%”. For the same compound, in experiment [4], the “blood sugars 24 hours after ip and sc injections” value is “back to baseline”. In addition, in experiment [5] (50 min, glucagon 10 or 100 nM, GLP-1 10 nM, insulin 100 nM, 8-Br-cAMP 100 nM, vanadate 1 mM), the “effect on amylase release when given alone” value was “did not influence amylase release”. Moreover, the “effect on CCK-induced amylase release” value in experiment [5] (combined with CCK (1 nM), genestein 300 μM, vanadate 1 mM) was “did not influence amylase release”. Further, the “basal or CCK (1 nM)-induced amylase release after pre-incubation” value in experiment [5] (pre-incubation 8, 24, 48 or 72 h with GLP-1 (10 nM) and insulin (100 nM)) is recorded as “did not increase”.
Turning to exendin-4, in experiment [1], the “total number of insulin positive cells” value was “increase in total number of insulin positive cells”, the “time of maximal differentiation effect” value is listed as “seven days” and the “persistence of increased number of insulin producing cells after treatment is discontinued” value is given as “at least two weeks”. For the same compound, the “AR42J cells converted into insulin-positive cells” value in experiment [2] (setting [6]) is listed as approximately 25%. Also, in experiment [2] (AR42J cells), the “lowest concentration at which some insulin-containing cells were seen” value is on record as 10^−11 molar. For the same compound, in experiment [3], the “potency on [Ca2+]i relative to GLP-1” value is reported as “approximately one order of magnitude more potent”. Moreover, in experiment [4], the “duration of lower blood sugars after an ip dose” value was “up to 24 hours”; the “blood sugars 24 hours after ip and sc injections” value is given as “lower blood sugars”. The “effect on amylase release when given alone” value in experiment [5] is “did not appear to influence amylase release”.
